Experiments:
KDR (GST-KDR(807-1356)) = molecular target: T1, KDR (GST-KDR(807-1356)) (Homo sapiens, UniProt P35968); experiment: KDR protein kinase activity, LanthaScreen TR-FRET; format: biochemical; conditions: 2 μM ATP, 1 hour incubation
T1 construct: GST-KDR(807-1356), internally produced recombinant protein; GST (N); made in house
Procedure: A generic assay set-up has been run at room temperature on a liquid handling robot. To the assay plates containing 50 nL compound or control solutions, 4.5 μL of ATP mix (20 mM Tris-HCl pH7.4, 1 mM DTT, 0.025% Tween20, 0.01 mM Na3VO4, 10 mM MgCl2, 1 mM MnCl2, and 4 μM ATP) were added per well. Subsequently, 4.5 μL of enzyme-substrate mix (20 mM Tris-HCl pH7.4, 1 mM DTT, 0.025% Tween20, 0.01 mM Na3VO4, 10 mM MgCl2, 1 mM MnCl2, 0.5% BSA, 100 nM fluorescein labeled poly(EAY), and 0.76 nM KDR (GST-KDR(807-1356), internally produced recombinant protein) were added.
The final reaction volume is 9.05 μL with final reagent concentrations of 20 mM Tris-HCl pH7.4, 1 mM DTT, 0.025% Tween20, 0.01 mM Na3VO4, 10 mM MgCl2, 1 mM MnCl2, including a generic concentration of 2 μM ATP, 50 nM of substrate fluorescein labeled poly(EAY), and 0.38 nM enzyme.
After 1 hour of incubation the kinase reactions have been stopped by the addition of 4.5 μL of stop solution (20 mM Tris-HCl pH7.4, 1 mM DTT, 0.025% Tween20, 0.01 mM Na3VO4, 50 mM EDTA) immediately followed by 4.5 μL of antibody solution (20 mM Tris-HCl pH7.4, 1 mM DTT, 0.025% Tween20, 0.01 mM Na3VO4, 1.72 μg/ml Tb-PY20).
After an incubation time of 45 min in the dark, the plates were transferred into a fluorescence reader and counted in time resolved fluorescence mode (settings according to the reagent supplier's recommendation). The effect of compound on the enzymatic activity was obtained from end point measurement.

[1] = Stability of crystalline form; format: physicochemical; conditions: HCl salt
Source text: Crystalline form B of the HCl salt of N-(1-methyl-5-(trifluoromethyl)-1H-pyrazol-3-yl)-5-((6-((methylamino)methyl)pyrimidin-4-yl)oxy)-1H-indole-1-carboxamide was obtained using the same procedure as in Example 5 above.

human hepatocytes = experiment: Hepatocyte viability during incubation (ViaCount assay); format: cell-based; conditions: 10 μmol/L, percent viable cells relative to total cells
Procedure: (§1) After thawing the cryopreserved hepatocytes, the viable cells were enriched by centrifugation in HepatoZYME cell culture medium (Gibco Invitrogen). For this purpose, the cells were added to 45 mL of a 37° C. warm HepatoZYME, and centrifuged at room temperature, at 50 g for 5 min. The supernatant containing dead cells was discarded and the cells in the pellet were re-suspended in HepatoZYME.
(§2) The viability of the re-suspended hepatocytes was determined by a Guava EasyCyte™ Mini system using the ViaCount® assay as described by the supplier (Guava Technologies, Hayward, Calif., USA). After cell counting, the cell concentration was adjusted to approx. 1·10^6 viable cells/mL by adding HepatoZYME. Subsequently, the incubations were started by adding [^14C] N-(1-methyl-5-(trifluoromethyl)-1H-pyrazol-3-yl)-5-(6-((methylamino)methyl)pyrimidin-4-yloxy)-1H-indole-1-carboxamide and non-labeled N-(1-methyl-5-(trifluoromethyl)-1H-pyrazol-3-yl)-5-(6-((methylamino)methyl)pyrimidin-4-yloxy)-1H-indole-1-carboxamide as a solution in DMSO. The final concentration of DMSO in the incubations was 0.1% (v/v).
(§3) To check the chemical stability of [^14C] N-(1-methyl-5-(trifluoromethyl)-1H-pyrazol-3-yl)-5-(6-((methylamino)methyl)pyrimidin-4-yloxy)-1H-indole-1-carboxamide under the incubation conditions, the compound was incubated at a concentration of 10 μmol/L in HepatoZYME without hepatocytes. A second series of control incubations was performed with hepatocytes of all species in the absence of the test compound to investigate the effect of the latter on the viability. These experiments were performed in a 12×6 mL MultiWell™ plate (Art. 393503, Beckton Dickinson).
(§4) The incubations were performed at 37° C. under a humidified atmosphere of 95% relative humidity and 5% CO2 in a Heraeus incubator/cytoperm (Kendro Laboratory Products AG, Zürich, Switzerland). During the incubations, the plates and flasks were shaken at 300 strokes per minute. The viability of the hepatocytes was determined after 6 h (end of incubation).

monkey hepatocytes = experiment: as above; format: cell-based; conditions: 10 μmol/L, percent viable cells relative to total cells
Procedure: as §1, §2, §3, §4

rabbit hepatocytes = experiment: as above; format: cell-based; conditions: 10 μmol/L, percent viable cells relative to total cells
Procedure: as §1, §2, §3, §4

rat hepatocytes = experiment: as above; format: cell-based; conditions: 10 μmol/L, percent viable cells relative to total cells
Procedure: as §1, §2, §3, §4

[2] = tested on: hepatocytes from rat, rabbit, monkey, and human; experiment: Hepatocyte viability during incubation, all species summarised; format: cell-based; conditions: 10 μmol/L, range over four species; initially 70-93%; controls without compound 4-21%
Procedure: as §1
as §2, with “(v/v). […]” for “(v/v).”
The incubations were performed at 37° C. under a humidified atmosphere of 95% relative humidity and 5% CO2 in a Heraeus incubator/cytoperm (Kendro Laboratory Products AG, Zürich, Switzerland). […] The viability of the hepatocytes was determined after 6 h (end of incubation).

[3] = Control incubations in the absence of hepatocytes or liver microsomes (chemical stability); format: in vitro ADME; conditions: 10 μmol/L in HepatoZYME without hepatocytes (6 h) or buffer without microsomes (60 min), 37° C.
Procedure: as §3
Microsomal incubations for metabolite profiles were performed at 10 μmol/L of [^14C] N-(1-methyl-5-(trifluoromethyl)-1H-pyrazol-3-yl)-5-(6-((methylamino)methyl)pyrimidin-4-yloxy)-1H-indole-1-carboxamide (approx. 50% radiolabeled) with one time point investigated (60 min). Incubations were performed at 37° C. in 0.1 mol/L sodium phosphate buffer pH 7.4. The final concentrations in the incubation cocktail were: 4 mmol/L UDPGA (Sigma-Aldrich), 1 mmol/L β-NADPH (Sigma-Aldrich), 5 mmol/L MgCl2, and 60 μg alamethicin (Sigma-Aldrich) per mg microsomal protein. The system was left to incubate for 10 min before adding the test compound to allow the pore formation with the alamethicin. The metabolic reaction was started by the addition of [^14C] […]

T1 sequence (P35968 807-1356): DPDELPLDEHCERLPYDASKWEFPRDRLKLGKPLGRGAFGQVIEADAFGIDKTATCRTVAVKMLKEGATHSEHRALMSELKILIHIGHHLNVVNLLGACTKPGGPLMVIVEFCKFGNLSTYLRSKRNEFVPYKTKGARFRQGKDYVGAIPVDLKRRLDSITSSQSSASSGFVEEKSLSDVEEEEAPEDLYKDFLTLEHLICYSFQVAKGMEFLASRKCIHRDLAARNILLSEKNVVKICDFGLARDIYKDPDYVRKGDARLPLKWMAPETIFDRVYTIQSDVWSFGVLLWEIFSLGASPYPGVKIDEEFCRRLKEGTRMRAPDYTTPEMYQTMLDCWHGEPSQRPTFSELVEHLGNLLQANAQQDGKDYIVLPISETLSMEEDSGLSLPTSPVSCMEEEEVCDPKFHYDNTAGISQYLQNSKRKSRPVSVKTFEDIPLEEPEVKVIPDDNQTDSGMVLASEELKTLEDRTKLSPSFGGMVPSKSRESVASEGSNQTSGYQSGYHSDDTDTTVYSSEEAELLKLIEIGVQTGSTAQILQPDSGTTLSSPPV

Compound: Cn1nc(NC(=O)n2ccc3cc(Oc4cc(C(N)=O)ncn4)ccc32)cc1C(F)(F)F [Example 2, 5-((6-Carbamoylpyrimidin-4-yl)oxy)-N-(1-methyl-5-(trifluoromethyl)-1H-pyrazol-3-yl)-1H-indole-1-carboxamide]
- IC50 (KDR (GST-KDR(807-1356))): 20 nM

Compound: CNCc1cc(Oc2ccc3c(ccn3C(=O)Nc3cc(C(F)(F)F)n(C)n3)c2)ncn1 [Form B, N-(1-methyl-5-(trifluoromethyl)-1H-pyrazol-3-yl)-5-((6-((methylamino)methyl)pyrimidin-4-yl)oxy)-1H-indole-1-carboxamide]
- stability of the crystalline form [1]: transient form that converts back to Form A

Compound: CNCc1cc(Oc2ccc3c(ccn3C(=O)Nc3cc(C(F)(F)F)n(C)n3)c2)ncn1 [[^14C] N-(1-methyl-5-(trifluoromethyl)-1H-pyrazol-3-yl)-5-(6-((methylamino)methyl)pyrimidin-4-yloxy)-1H-indole-1-carboxamide]
- Viability at 6 h (human hepatocytes): 25%
- Viability at 6 h (monkey hepatocytes): 42%
- Viability at 6 h (rabbit hepatocytes): 8%
- Viability at 6 h (rat hepatocytes): 22%
- viability of the hepatocytes after 6 hours [2]: 8-42%
- chemical stability in the incubation media [3]: confirmed the stability of the compound

Compound: Cn1nc(NC(=O)n2ccc3cc(Oc4cc(/C=[N+](/C)[O-])ncn4)ccc32)cc1C(F)(F)F [Example 1, (Z)-N-((6-((1-((1-methyl-5-(trifluoromethyl)-1H-pyrazol-3-yl)carbamoyl)-1H-indol-5-yl)oxy)pyrimidin-4-yl)methylene)methanamine oxide]
- IC50 (KDR (GST-KDR(807-1356))): < 1 nM

Compound: Cn1nc(NC(=O)n2ccc3cc(Oc4cc(CN)ncn4)ccc32)cc1C(F)(F)F [Example 3, 5-(6-(aminomethyl)pyrimidin-4-yloxy)-N-(1-methyl-5-(trifluoromethyl)-1H-pyrazol-3-yl)-1H-indole-1-carboxamide]
- IC50 (KDR (GST-KDR(807-1356))): < 1 nM
